Earlier results as cited in patent US20240342131A1, “Multivitamin for Cystic Fibrosis Patients Undergoing Cystic Fibrosis Transmembrance Conductance Regulator Gene Modulator Therapy” (priority 2021, published 2024).

Settings: high doses

O=C1O[C@H]([C@@H](O)CO)C(O)=C1O [vitamin C]
side effect: secretory diarrhea
